Key:
[1] = molecular target: T1, homoserine-dehydrogenase (HD) (Pseudomonas alvandae, UniProt P0DXC5); experiment: NADH formation; assay type: biochemical; settings: homoserine as co-substrate
T1 sequence (P0DXC5 1-352): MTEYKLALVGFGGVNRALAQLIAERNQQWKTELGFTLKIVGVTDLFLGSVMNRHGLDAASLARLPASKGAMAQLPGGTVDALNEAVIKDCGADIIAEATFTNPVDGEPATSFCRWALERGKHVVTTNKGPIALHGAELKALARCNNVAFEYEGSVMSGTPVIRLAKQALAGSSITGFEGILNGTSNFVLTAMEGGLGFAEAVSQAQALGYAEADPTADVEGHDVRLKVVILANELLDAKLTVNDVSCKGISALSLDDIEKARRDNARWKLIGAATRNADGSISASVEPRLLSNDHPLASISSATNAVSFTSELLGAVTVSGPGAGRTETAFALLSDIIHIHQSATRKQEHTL

[2] = molecular target: T2, canavanine-γ-lyase (CanγL); aminotransferase AT (Pseudomonas alvandae, UniProt P0DXC4); experiment: UV/Vis spectra of the enzyme reaction; assay type: binding; settings: covalent (internal aldimine with K213); canavanine as substrate
T2 sequence (P0DXC4 1-400): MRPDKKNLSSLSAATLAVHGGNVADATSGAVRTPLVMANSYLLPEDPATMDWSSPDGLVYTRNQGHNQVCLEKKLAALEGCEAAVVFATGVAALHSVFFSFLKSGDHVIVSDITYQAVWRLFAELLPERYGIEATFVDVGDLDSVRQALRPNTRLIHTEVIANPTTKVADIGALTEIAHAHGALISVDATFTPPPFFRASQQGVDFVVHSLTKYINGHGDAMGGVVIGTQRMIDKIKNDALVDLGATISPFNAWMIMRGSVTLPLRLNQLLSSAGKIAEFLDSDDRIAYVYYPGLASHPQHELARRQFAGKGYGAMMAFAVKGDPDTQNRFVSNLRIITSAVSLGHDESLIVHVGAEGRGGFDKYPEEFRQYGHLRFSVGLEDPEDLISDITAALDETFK

[3] = molecular target: T3, aldehyde-dehydrogenase 2 (AC) (Pseudomonas alvandae, UniProt P0DXC6); experiment: 1H-NMR of coupled reaction homoserine to fumarate; assay type: biochemical; settings: aspartate semialdehyde formed in situ from homoserine by HD; with AAL
T3 sequence (P0DXC6 1-485): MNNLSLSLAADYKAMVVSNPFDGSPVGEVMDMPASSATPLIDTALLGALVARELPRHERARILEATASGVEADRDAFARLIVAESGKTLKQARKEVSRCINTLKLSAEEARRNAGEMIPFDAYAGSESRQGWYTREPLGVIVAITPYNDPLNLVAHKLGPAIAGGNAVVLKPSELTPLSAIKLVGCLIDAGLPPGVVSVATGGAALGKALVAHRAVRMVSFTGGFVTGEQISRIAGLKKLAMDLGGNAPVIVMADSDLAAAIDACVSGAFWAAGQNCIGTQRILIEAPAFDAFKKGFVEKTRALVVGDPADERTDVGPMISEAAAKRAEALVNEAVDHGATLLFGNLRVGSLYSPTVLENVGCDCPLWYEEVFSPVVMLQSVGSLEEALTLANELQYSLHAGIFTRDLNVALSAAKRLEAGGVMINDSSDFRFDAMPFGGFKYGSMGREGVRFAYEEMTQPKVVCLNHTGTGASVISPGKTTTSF

[4] = molecular target: T4, aldehyde-dehydrogenase 1 (AH) (Pseudomonas alvandae, UniProt P0DXC7); experiment: 1H-NMR of coupled reaction homoserine to fumarate; assay type: biochemical; settings: aspartate semialdehyde formed in situ from homoserine by HD; with AAL
T4 sequence (P0DXC7 1-470): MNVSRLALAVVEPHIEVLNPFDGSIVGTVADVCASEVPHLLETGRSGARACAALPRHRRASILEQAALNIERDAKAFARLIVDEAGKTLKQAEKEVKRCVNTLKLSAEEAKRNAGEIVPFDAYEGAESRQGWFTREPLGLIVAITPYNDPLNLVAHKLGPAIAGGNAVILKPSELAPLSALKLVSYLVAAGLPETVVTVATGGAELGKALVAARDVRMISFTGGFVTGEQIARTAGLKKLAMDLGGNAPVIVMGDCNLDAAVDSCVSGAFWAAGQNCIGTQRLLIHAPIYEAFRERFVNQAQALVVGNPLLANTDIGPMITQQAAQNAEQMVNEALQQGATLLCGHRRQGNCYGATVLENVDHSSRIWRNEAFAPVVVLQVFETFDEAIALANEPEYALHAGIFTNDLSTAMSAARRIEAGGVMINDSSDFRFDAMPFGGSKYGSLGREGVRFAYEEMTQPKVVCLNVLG

[5] = molecular target: T5, ammonium–aspartate–lyase (AAL) (Pseudomonas alvandae, UniProt P0DXC8); experiment: 1H-NMR of coupled reaction homoserine to fumarate; assay type: biochemical; settings: aspartate formed in situ by HD with AH or AC
T5 sequence (P0DXC8 1-474): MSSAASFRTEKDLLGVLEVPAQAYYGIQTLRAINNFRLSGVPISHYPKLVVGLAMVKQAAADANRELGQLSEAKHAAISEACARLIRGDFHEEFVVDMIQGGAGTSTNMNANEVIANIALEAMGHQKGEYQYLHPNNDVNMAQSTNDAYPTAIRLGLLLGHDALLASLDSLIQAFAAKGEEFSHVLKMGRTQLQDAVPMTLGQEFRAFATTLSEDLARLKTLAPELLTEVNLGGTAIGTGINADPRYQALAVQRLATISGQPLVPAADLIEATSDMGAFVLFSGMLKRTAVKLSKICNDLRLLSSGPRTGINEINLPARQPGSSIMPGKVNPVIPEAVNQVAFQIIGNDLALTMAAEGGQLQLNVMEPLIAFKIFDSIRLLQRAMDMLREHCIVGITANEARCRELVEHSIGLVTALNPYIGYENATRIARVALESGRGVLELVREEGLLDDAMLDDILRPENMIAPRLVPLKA

[6] = molecular target: T1, homoserine-dehydrogenase (HD); experiment: NADH formation; assay type: biochemical; settings: NAD+ as co-substrate

With NC(=O)c1ccc[n+]([C@@H]2O[C@H](COP(=O)(O)OP(=O)(O)OC[C@H]3O[C@@H](n4cnc5c(N)ncnc54)[C@H](O)[C@@H]3O)[C@@H](O)[C@H]2O)c1 [NAD+] the NADH formation [1] was “the reaction of HD was only dependent on the cofactor NAD^+”.
In the case of Cc1ncc(COP(=O)(O)O)c(C=O)c1O [PLP], the “UV/Vis spectra of the enzyme reaction; K213A comparison” value [2] is reported as “Time-dependent increase of presumed aldimine and quinonoid peaks were observed for the wt enzyme”.
For N[C@@H](CC=O)C(=O)O [aspartate semialdehyde], the “1H-NMR of coupled reaction homoserine to fumarate” value (“1H-NMR … to fumarate” for short) [3] was “purified HD with either of the two aldehyde-dehydrogenases AH or AC and AAL” and the “1H-NMR … to fumarate” value [4] was “purified HD with either of the two aldehyde-dehydrogenases AH or AC and AAL”.
In the case of N[C@@H](CC(=O)O)C(=O)O [aspartate], the “1H-NMR … to fumarate” value [5] is reported as “AH or AC and AAL the formation of fumarate via aspartate was observed”.
In the case of N[C@@H](CCO)C(=O)O [homoserine], the “NADH formation; 1H-NMR of the coupled reaction” value [6] is reported as “homoserine-dehydrogenase (HD) which catalyzes the conversion of homoserine and NAD+”.

Reference: paper PMC9533460 (RSC Chemical Biology, 2022)
